In US20110124606A1, “SENSE-IMPROVING AGENT” (SNOW BRAND MILK PRODUCTS CO., LTD., priority 2007, published 2011):

Tests used:
[1] = system: Healthy elderly persons who suffered deterioration in sensation in the hands; assay: Pain sensation in palm and foot by Algesiometer, oral intake of sphingomyelin (Test Example 5); assay type: in vivo, human; conditions: for Hand Foot bottom sensation measurement (before intake): Average value / Hand sensation measurement (before intake): Average value / Hand Foot bottom sensation measurement (after intake for 12 weeks): Average value / Hand sensation measurement (after intake for 12 weeks): Average value: Normal 0 to Deterioration III 3 points; for Hand Foot bottom sensation measurement (before intake): Deterioration I / Hand Foot bottom sensation measurement (before intake): Deterioration II / Hand Foot bottom sensation measurement (before intake): Deterioration III / Hand Foot bottom sensation measurement (before intake): Normal / Hand sensation measurement (before intake): Deterioration I / Hand sensation measurement (before intake): Deterioration II / Hand sensation measurement (before intake): Deterioration III / Hand sensation measurement (before intake): Normal / Hand Foot bottom sensation measurement (after intake for 12 weeks): Deterioration I / Hand Foot bottom sensation measurement (after intake for 12 weeks): Deterioration II / Hand Foot bottom sensation measurement (after intake for 12 weeks): Deterioration III / Hand Foot bottom sensation measurement (after intake for 12 weeks): Normal / Hand sensation measurement (after intake for 12 weeks): Deterioration I / Hand sensation measurement (after intake for 12 weeks): Deterioration II / Hand sensation measurement (after intake for 12 weeks): Deterioration III / Hand sensation measurement (after intake for 12 weeks): Normal: subjects per criterion, 15 per group; for sensation in the palm and the bottom of the foot (in words): 12 weeks
Description: The pain sensation was evaluated using five pins that differ in thickness in combination with five fulcrum positions. The thinnest pin 1 was rolled along the medial side of the arm, and the subject was asked about the degree of normal pain sensation. The pin 1 was then rolled along the palm and the bottom of the foot while sequentially changing the holder fulcrum position to determine the fulcrum position at which the same pain sensation degree as the first pain sensation occurred. The Algesiometer is designed so that the pain sensations with same degree occur between when rolling the pin 1 (fulcrum: 50 g) along the medial side of the arm and when rolling the pin 2 (fulcrum: 50 g) along the palm. The pain sensation was evaluated as follows in accordance with the instruction manual. The pain sensation was evaluated by points, and the average points were calculated. Normal (0 points): The same pain sensation occurred when rolling the pin 2 (fulcrum: 50 g). Deterioration I (1 point): The same pain sensation occurred when rolling the pin 1 (fulcrum: 50 g). Deterioration II (2 points): The same pain sensation occurred when rolling the pin 1 (fulcrum: 60 g): Deterioration III (3 points): The same pain sensation occurred when rolling the pin 1 (fulcrum: 70 g): Healthy elderly persons (average age: 75±3) who suffered deterioration in sensation in the hands were divided into three groups (one group: 15 subjects). The subjects took the sphingomyelin obtained in Example 4 in an amount of 0 mg, 4 mg, or 8 mg for 12 weeks. The pain sensation in the palm and the arch of the foot was measured with 4 criteria (normal, deteriorations I, II, and III) before the intake and after the intake for 12 weeks with reference to the pain sensation in the medial side of the arm using a pain/touch-pressure sensation measuring device (“Algesiometer” manufactured by Intercross Ltd.) in accordance with the instruction manual. After the intake for 12 weeks, a questionnaire survey on improvement in sensation in the hands was carried out to each elderly person. The measurement method and the evaluation method are the same as those employed in Test Example 4.

[2] = system: Healthy elderly persons who suffered deterioration in sensation in the hands; assay: Questionnaire survey on improvement in sensation, oral intake of sphingomyelin (Test Example 5); assay type: in vivo, human; conditions: subjects of 15
Description: Healthy elderly persons (average age: 75±3) who suffered deterioration in sensation in the hands were divided into three groups (one group: 15 subjects). The subjects took the sphingomyelin obtained in Example 4 in an amount of 0 mg, 4 mg, or 8 mg for 12 weeks. The pain sensation in the palm and the arch of the foot was measured with 4 criteria (normal, deteriorations I, II, and III) before the intake and after the intake for 12 weeks with reference to the pain sensation in the medial side of the arm using a pain/touch-pressure sensation measuring device (“Algesiometer” manufactured by Intercross Ltd.) in accordance with the instruction manual. After the intake for 12 weeks, a questionnaire survey on improvement in sensation in the hands was carried out to each elderly person. The measurement method and the evaluation method are the same as those employed in Test Example 4.

PC-12 cells = assay: Cell differentiation-promoting activity: PC-12 cells cultured in culture supernatant of treated 3T3 cells; assay type: cell-based; conditions: supernatant of 3T3 cells cultured two days with 200 μg/l
Description: 3T3 cells, which is fibroblast cell strain known to be present in skin, were cultured for two days under the condition that the milk-derived phospholipid-containing composition of Example 1 or 2 was added at a concentration of 200 μg/l (Example 1: Group A, Example 2: Group B). As a control, 3T3 cells were cultured for two days without adding the milk-derived phospholipid-containing composition obtained in Example 1 or 2 (Group C). PC-12 cells (nerve model cells) were cultured using the culture supernatant thereof, and morphological differentiation of the PC-12 cells was observed. […] It was confirmed that 95% or more of the cells were differentiated when using the culture supernatant of the group A or B. On the other hand, the PC-12 cells were not differentiated when using the culture supernatant of the group C. No differentiation was observed through an optical microscope even though the experiment was repeated several times. It was thus confirmed that the milk-derived phospholipid-containing compositions obtained in Examples 1 and 2 promote differentiation of the PC-12 cells which was nerve model cells.
3T3 cells, which is fibroblast cell strain known to be present in skin, were cultured for two days under the condition that the sphingomyelin obtained in Example 3 was added at a concentration of 200 μg/l (group A). […]

Substance: sphingomyelin [Example 4]
- Hand Foot bottom sensation measurement (before intake): Average value ([1]; 4 mg group): 2.1 points
- Hand sensation measurement (before intake): Average value ([1]; 4 mg group): 2.1 points
- Hand Foot bottom sensation measurement (before intake): Deterioration I ([1]; 4 mg group): 3
- Hand Foot bottom sensation measurement (before intake): Deterioration II ([1]; 4 mg group): 7
- Hand Foot bottom sensation measurement (before intake): Deterioration III ([1]; 4 mg group): 5
- Hand Foot bottom sensation measurement (before intake): Normal ([1]; 4 mg group): 0
- Hand sensation measurement (before intake): Deterioration I ([1]; 4 mg group): 3
- Hand sensation measurement (before intake): Deterioration II ([1]; 4 mg group): 7
- Hand sensation measurement (before intake): Deterioration III ([1]; 4 mg group): 5
- Hand sensation measurement (before intake): Normal ([1]; 4 mg group): 0
- Hand Foot bottom sensation measurement (before intake): Average value ([1]; 8 mg group): 2.3 points
- Hand sensation measurement (before intake): Average value ([1]; 8 mg group): 2.3 points
- Hand Foot bottom sensation measurement (before intake): Deterioration I ([1]; 8 mg group): 2
- Hand Foot bottom sensation measurement (before intake): Deterioration II ([1]; 8 mg group): 7
- Hand Foot bottom sensation measurement (before intake): Deterioration III ([1]; 8 mg group): 6
- Hand Foot bottom sensation measurement (before intake): Normal ([1]; 8 mg group): 0
- Hand sensation measurement (before intake): Deterioration I ([1]; 8 mg group): 2
- Hand sensation measurement (before intake): Deterioration II ([1]; 8 mg group): 6
- Hand sensation measurement (before intake): Deterioration III ([1]; 8 mg group): 7
- Hand sensation measurement (before intake): Normal ([1]; 8 mg group): 0
- sensation in the palm and the bottom of the foot (in words) ([1]; intake 4 mg): tended to be improved
- Hand Foot bottom sensation measurement (after intake for 12 weeks): Average value ([1]; intake 4 mg): 1.7 points
- Hand sensation measurement (after intake for 12 weeks): Average value ([1]; intake 4 mg): 1.5 points
- Hand Foot bottom sensation measurement (after intake for 12 weeks): Deterioration I ([1]; intake 4 mg): 5
- Hand Foot bottom sensation measurement (after intake for 12 weeks): Deterioration II ([1]; intake 4 mg): 7
- Hand Foot bottom sensation measurement (after intake for 12 weeks): Deterioration III ([1]; intake 4 mg): 2
- Hand Foot bottom sensation measurement (after intake for 12 weeks): Normal ([1]; intake 4 mg): 1
- Hand sensation measurement (after intake for 12 weeks): Deterioration I ([1]; intake 4 mg): 5
- Hand sensation measurement (after intake for 12 weeks): Deterioration II ([1]; intake 4 mg): 6
- Hand sensation measurement (after intake for 12 weeks): Deterioration III ([1]; intake 4 mg): 2
- Hand sensation measurement (after intake for 12 weeks): Normal ([1]; intake 4 mg): 2
- sensation in the palm and the bottom of the foot (in words) ([1]; intake 8 mg): significantly improved
- Hand Foot bottom sensation measurement (after intake for 12 weeks): Average value ([1]; intake 8 mg): 1.6 points
- Hand sensation measurement (after intake for 12 weeks): Average value ([1]; intake 8 mg): 1.3 points
- Hand Foot bottom sensation measurement (after intake for 12 weeks): Deterioration I ([1]; intake 8 mg): 7
- Hand Foot bottom sensation measurement (after intake for 12 weeks): Deterioration II ([1]; intake 8 mg): 4
- Hand Foot bottom sensation measurement (after intake for 12 weeks): Deterioration III ([1]; intake 8 mg): 3
- Hand Foot bottom sensation measurement (after intake for 12 weeks): Normal ([1]; intake 8 mg): 1
- Hand sensation measurement (after intake for 12 weeks): Deterioration I ([1]; intake 8 mg): 7
- Hand sensation measurement (after intake for 12 weeks): Deterioration II ([1]; intake 8 mg): 3
- Hand sensation measurement (after intake for 12 weeks): Deterioration III ([1]; intake 8 mg): 2
- Hand sensation measurement (after intake for 12 weeks): Normal ([1]; intake 8 mg): 3
- Foot sensation: Improved ([2]; intake 4 mg for 12 weeks): 5
- Foot sensation: Same ([2]; intake 4 mg for 12 weeks): 9
- Foot sensation: Worsened ([2]; intake 4 mg for 12 weeks): 1
- Hand sensation: Improved ([2]; intake 4 mg for 12 weeks): 6
- Hand sensation: Same ([2]; intake 4 mg for 12 weeks): 7
- Hand sensation: Worsened ([2]; intake 4 mg for 12 weeks): 2
- Foot sensation: Improved ([2]; intake 8 mg for 12 weeks): 8
- Foot sensation: Same ([2]; intake 8 mg for 12 weeks): 7
- Foot sensation: Worsened ([2]; intake 8 mg for 12 weeks): 0
- Hand sensation: Improved ([2]; intake 8 mg for 12 weeks): 10
- Hand sensation: Same ([2]; intake 8 mg for 12 weeks): 4
- Hand sensation: Worsened ([2]; intake 8 mg for 12 weeks): 1

Substance: sphingomyelin [Example 3]
- morphological differentiation of PC-12 cells (PC-12 cells): highly differentiated
- differentiation rate of PC-12 cells (PC-12 cells; optical microscope): ≥ 94%
